In ChEMBL document CHEMBL1671744 (Antimicrob Agents Chemother, 2010):
Converted amounts (≈) assume the structure as drawn. Where a SMILES comes first, the peptide text is derived from it. [ ]: non-standard residue; d: D form. The star is where a group is joined. Undecanoyl = CCCCCCCCCCC(=O)*; Nphe = O=C(O)CNCc1ccccc1; OBn = c1ccc(CO*)cc1

How the values were obtained:
Staphylococcus aureus = assay: Antimicrobial activity against Staphylococcus aureus; type: functional
Escherichia coli = assay: Antimicrobial activity against Escherichia coli; type: functional
[1] = erythrocyte
Aspergillus fumigatus = assay: Antimicrobial activity against Aspergillus fumigatus; type: functional
Pseudomonas aeruginosa = assay: microbe, parasite or virus in culture; type: functional

Compound | MIC (Staphylococcus aureus) [µM] | MIC (Escherichia coli) [µM] | MHC [1] [µM] | further results
NC(N)=NCCC[C@H](NC(=O)[C@@H](N)Cc1c[nH]c2ccccc12)C(=O)N[C@@H](Cc1c[nH]c2ccccc12)C(=O)OCc1ccccc1 (H-Trp-Arg-Trp-OBn) | 9 (≈ 5.73 µg/mL) | 140 (≈ 89.1 µg/mL) |  | 
CC[C@H](C)[C@H](NC(=O)[C@H](CCCCN)NC(=O)[C@@H](NC(=O)[C@H](CCC(N)=O)NC(=O)[C@@H](N)CCCNC(=N)N)[C@@H](C)CC)C(=O)N[C@@H](Cc1c[nH]c2ccccc12)C(=O)N[C@@H](Cc1ccccc1)C(=O)N[C@@H](CCC(N)=O)C(=O)N[C@@H](CC(N)=O)C(=O)N[C@@H](CCCNC(=N)N)C(=O)N[C@@H](CCCNC(=N)N)C(=O)N[C@@H](CCSC)C(=O)N[C@@H](CCCCN)C(=O)N[C@@H](Cc1c[nH]c2ccccc12)C(=O)N[C@@H](CCCCN)C(=O)N[C@@H](CCCCN)C(=O)NCCCC[C@H](NC(=O)[C@H](CCCCN)NC(=O)[C@H](CCCCN)NC(=O)[C@H](Cc1c[nH]c2ccccc12)NC(=O)[C@H](CCCCN)NC(=O)[C@H](CCSC)NC(=O)[C@H](CCCNC(=N)N)NC(=O)[C@H](CCCNC(=N)N)NC(=O)[C@H](CC(N)=O)NC(=O)[C@H](CCC(N)=O)NC(=O)[C@H](Cc1ccccc1)NC(=O)[C@H](Cc1c[nH]c2ccccc12)NC(=O)[C@@H](NC(=O)[C@H](CCCCN)NC(=O)[C@@H](NC(=O)[C@H](CCC(N)=O)NC(=O)[C@@H](N)CCCNC(=N)N)[C@@H](C)CC)[C@@H](C)CC)C(N)=O | 1 (≈ 4.6 µg/mL) | 2 (≈ 9.21 µg/mL) | 25 | 
CC[C@H](C)[C@H](NC(=O)CN)C(=O)NCC(=O)N[C@@H](C)C(=O)N[C@H](C(=O)N(CC(=O)N[C@@H](CCCCN)C(=O)N[C@H](C(=O)N[C@@H](CC(C)C)C(=O)N[C@H](C(=O)N[C@H](C(=O)NCC(=O)N(CC(=O)N1CCC[C@H]1C(=O)N[C@@H](C)C(=O)N[C@@H](CC(C)C)C(=O)N[C@H](C(=O)N[C@@H](CO)C(=O)N[C@@H](Cc1c[nH]c2ccccc12)C(=O)N(CC(=O)N[C@@H](CCCCN)C(=O)N[C@@H](CCCNC(=N)N)C(=O)N[C@@H](CCCCN)C(=O)N[C@@H](CCCNC(=N)N)C(=O)N[C@@H](CCC(N)=O)C(=O)N[C@@H](CCC(N)=O)C(=O)O)Cc1ccccc1)[C@@H](C)CC)Cc1ccccc1)[C@@H](C)O)[C@@H](C)O)C(C)C)Cc1ccccc1)C(C)C [MELITTIN PEPTOID F] (H-GIGAV[Nphe]KVLTTG[Nphe]PALISW[Nphe]KRKRQQ-OH) | 2 (≈ 5.9 µg/mL) | 4 (≈ 11.8 µg/mL) | > 100 | 
CCCCCCCCCCC(=O)NCC(=O)N[C@H](C(=O)NCC(=O)N[C@@H](CCCCN)C(=O)N[C@@H](Cc1ccccc1)C(=O)N[C@@H](CC(C)C)C(=O)N[C@@H](Cc1cnc[nH]1)C(=O)N[C@@H](CO)C(=O)N[C@@H](C)C(=O)N[C@@H](CCCCN)C(=O)N[C@@H](CCCCN)C(=O)N[C@@H](Cc1c[nH]c2ccccc12)C(=O)NCC(=O)N[C@@H](CCCCN)C(=O)N[C@@H](C)C(=O)N[C@@H](Cc1ccccc1)C(=O)N[C@H](C(=O)NCC(=O)N[C@@H](CCC(=O)O)C(=O)N[C@H](C(=O)N[C@@H](CCSC)C(=O)N[C@@H](CC(N)=O)C(=O)N[C@@H](CO)C(N)=O)[C@@H](C)CC)C(C)C)[C@@H](C)CC (Undecanoyl-GIGKFLHSAKKWGKAFVGEIMNS-NH2) |  |  |  | MIC (Aspergillus fumigatus): 6.25 µM (≈ 16.7 µg/mL)
N=C(N)NCCC[C@H](NC(=O)[C@H](Cc1c[nH]c2ccccc12)NC(=O)[C@H](CCCNC(=N)N)NC(=O)[C@H](Cc1c[nH]c2ccccc12)NC(=O)[C@@H](N)CCCNC(=N)N)C(=O)N[C@@H](Cc1c[nH]c2ccccc12)C(N)=O (H-RWRWRW-NH2) | 8 (≈ 8.35 µg/mL) | 16 (≈ 16.7 µg/mL) |  | HC50 (in vitro; erythrocyte): 210 µM
CC[C@@H](C)[C@@H](NC(=O)[C@@H](C)NC(=O)[C@@H](CCCCN)NC(=O)[C@@H](CC(C)C)NC(=O)[C@@H](C)NC(=O)[C@H](NC(=O)[C@@H](Cc1cnc[nH]1)NC(=O)[C@@H](CC(C)C)NC(=O)[C@H](NC(=O)[C@H](NC(=O)[C@@H](CCCCN)NC(=O)[C@@H](CCCCN)NC(=O)[C@@H](C)NC(=O)[C@@H](CO)NC(=O)[C@@H](CCCCN)NC(=O)[C@@H](Cc1ccccc1)NC(=O)[C@H](NC(=O)[C@@H](CCCCN)NC(=O)[C@@H](CC(C)C)NC(=O)[C@@H](Cc1ccccc1)NC(=O)[C@@H](CO)NC(=O)[C@@H](CCCCN)NC(=O)[C@@H](Cc1c[nH]c2ccccc12)NC(=O)[C@@H](CCCCN)NC(C)=O)[C@H](C)O)[C@H](C)O)C(C)C)[C@H](C)O)C(=O)N[C@H](CO)C(=O)N[C@H](CO)C(N)=O |  | 1.1 (≈ 3.29 µg/mL) |  | MIC (Pseudomonas aeruginosa): 5.3 µM (≈ 15.9 µg/mL)
CC[C@H](C)[C@H](NC(=O)[C@H](CC(C)C)NC(=O)[C@H](CCCCN)NC(=O)[C@H](CC(C)C)NC(=O)[C@H](CC(C)C)NC(=O)[C@@H](NC(=O)[C@H](Cc1cnc[nH]1)NC(=O)[C@H](CC(C)C)NC(=O)[C@@H](NC(=O)[C@@H](NC(=O)[C@H](CCCCN)NC(=O)[C@H](CCCCN)NC(=O)[C@H](CC(C)C)NC(=O)[C@H](CO)NC(=O)[C@H](CCCCN)NC(=O)[C@H](Cc1ccccc1)NC(=O)[C@@H](NC(=O)[C@H](CCCCN)NC(=O)[C@H](CC(C)C)NC(=O)[C@H](Cc1ccccc1)NC(=O)[C@H](CO)NC(=O)[C@H](Cc1c[nH]c2ccccc12)NC(=O)[C@H](CCCCN)NC(C)=O)[C@@H](C)O)[C@@H](C)O)C(C)C)[C@@H](C)O)C(=O)N[C@@H](CO)C(=O)N[C@@H](CO)C(N)=O |  |  | 1.3 | MIC (Pseudomonas aeruginosa): 168 µM (≈ 502 µg/mL)
CC[C@H](C)[C@H](NC(=O)[C@H](CCCCN)NC(=O)[C@@H](NC(=O)[C@H](CCC(N)=O)NC(=O)[C@@H](N)CCCNC(=N)N)[C@@H](C)CC)C(=O)N[C@@H](Cc1c[nH]c2ccccc12)C(=O)N[C@@H](Cc1ccccc1)C(=O)N[C@@H](CCC(N)=O)C(=O)N[C@@H](CC(N)=O)C(=O)N[C@@H](CCCNC(=N)N)C(=O)N[C@@H](CCCNC(=N)N)C(=O)N[C@@H](CCSC)C(=O)N[C@@H](CCCCN)C(=O)N[C@@H](Cc1c[nH]c2ccccc12)C(=O)N[C@@H](CCCCN)C(=O)N[C@@H](CCCCN)C(N)=O [PENETRATIN] | 1 (≈ 2.25 µg/mL) | 2 (≈ 4.49 µg/mL) | > 200 | 
N=C(N)NCCC[C@H](NC(=O)[C@H](Cc1c[nH]c2ccccc12)NC(=O)[C@H](CCCNC(=N)N)NC(=O)[C@H](Cc1c[nH]c2ccccc12)NC(=O)[C@H](CCCNC(=N)N)NC(=O)[C@H](Cc1c[nH]c2ccccc12)NC(=O)[C@@H](N)CCCNC(=N)N)C(=O)N[C@@H](Cc1c[nH]c2ccccc12)C(N)=O (H-RWRWRWRW-NH2) | 5.1 (≈ 7.07 µg/mL) | 9.6 (≈ 13.3 µg/mL) |  | HC50 (in vitro; erythrocyte): 100 µM
CC[C@H](C)[C@H](NC(=O)CN)C(=O)NCC(=O)N[C@@H](CCCCN)C(=O)N[C@@H](Cc1ccccc1)C(=O)N[C@@H](CC(C)C)C(=O)N[C@@H](Cc1cnc[nH]1)C(=O)N[C@@H](CO)C(=O)N[C@@H](C)C(=O)N[C@@H](CCCCN)C(=O)N[C@@H](CCCCN)C(=O)N[C@@H](Cc1c[nH]c2ccccc12)C(=O)NCC(=O)N[C@@H](CCCCN)C(=O)N[C@@H](C)C(=O)N[C@@H](Cc1ccccc1)C(=O)N[C@H](C(=O)NCC(=O)N[C@@H](CCC(=O)O)C(=O)N[C@H](C(=O)N[C@@H](CCSC)C(=O)N[C@@H](CC(N)=O)C(=O)N[C@@H](CO)C(N)=O)[C@@H](C)CC)C(C)C (H-GIGKFLHSAKKWGKAFVGEIMNS-NH2) |  |  |  | MIC (Aspergillus fumigatus): > 50 µM
CCCCCCCCCCCCCCCC(=O)N[C@@H](CCCCN)C(=O)N[C@@H](CCCCN)C(=O)N[C@@H](CCCCN)C(N)=O |  | 1.56 (≈ 0.998 µg/mL) |  | MIC (Aspergillus fumigatus): 3.1 µM (≈ 1.98 µg/mL); HC50 (in vitro; red blood cells): 100 µM
N=C(N)NCCC[C@H](NC(=O)[C@H](Cc1c[nH]c2ccccc12)NCCCC[C@H](N[C@@H](Cc1c[nH]c2ccccc12)C(=O)N[C@@H](CCCNC(=N)N)C(=O)O)C(=O)NCCCC[C@H](NC(=O)[C@H](CCCCN[C@@H](Cc1c[nH]c2ccccc12)C(=O)N[C@@H](CCCNC(=N)N)C(=O)O)N[C@@H](Cc1c[nH]c2ccccc12)C(=O)N[C@@H](CCCNC(=N)N)C(=O)O)C(=O)NCCC(N)=O)C(=O)O | 8.7 (≈ 16.1 µg/mL) | 2.4 (≈ 4.43 µg/mL) |  | HC50 (in vitro; red blood cells): 760 µM
N=C(N)NCCC[C@H](NC(=O)[C@H](Cc1c[nH]c2ccccc12)NC(=O)[C@H](CCCNC(=N)N)NC(=O)[C@H](Cc1c[nH]c2ccccc12)NC(=O)[C@H](CCCNC(=N)N)NC(=O)[C@H](Cc1c[nH]c2ccccc12)NC(=O)[C@H](CCCNC(=N)N)NC(=O)[C@H](Cc1c[nH]c2ccccc12)NC(=O)[C@@H](N)CCCNC(=N)N)C(=O)N[C@@H](Cc1c[nH]c2ccccc12)C(N)=O | 3.6 (≈ 6.22 µg/mL) | 6.2 (≈ 10.7 µg/mL) |  | HC50 (in vitro; erythrocyte): 76 µM
CC[C@H](C)[C@H](NC(=O)[C@H](C)NC(=O)[C@H](CCCCN)NC(=O)[C@H](C)NC(=O)[C@H](C)NC(=O)[C@@H](NC(=O)[C@H](Cc1cnc[nH]1)NC(=O)[C@H](CC(C)C)NC(=O)[C@@H](NC(=O)[C@@H](NC(=O)[C@H](CCCCN)NC(=O)[C@H](CCCCN)NC(=O)[C@H](C)NC(=O)[C@H](CO)NC(=O)[C@H](CCCCN)NC(=O)[C@H](Cc1ccccc1)NC(=O)[C@@H](NC(=O)[C@H](CCCCN)NC(=O)[C@H](C)NC(=O)[C@H](Cc1ccccc1)NC(=O)[C@H](CO)NC(=O)[C@H](CCCCN)NC(=O)[C@H](Cc1c[nH]c2ccccc12)NC(=O)[C@H](CCCCN)NC(C)=O)[C@@H](C)O)[C@@H](C)O)C(C)C)[C@@H](C)O)C(=O)N[C@@H](CO)C(=O)N[C@@H](CO)C(N)=O (Ac-KWKSFAKTFKSAKKTVLHTAAKAISS-NH2) |  |  | 336 | MIC (Pseudomonas aeruginosa): 168 µM (≈ 488 µg/mL)
NC(=O)[C@H](Cc1c[nH]c2ccccc12)NC(=O)[C@H](CCCN=C(N)N)NC(=O)[C@@H](N)Cc1c[nH]c2ccccc12 (H-Trp-Arg-Trp-NH2) | 218 (≈ 119 µg/mL) | > 436 |  | 
CSCC[C@H](NC(=O)[C@@H](NC(=O)[C@H](CCCNC(=N)N)NC(=O)[C@H](Cc1ccccc1)NC(=O)[C@H](C)NC(=O)[C@H](C)NC(=O)[C@H](CCCCN)NC(=O)[C@H](CCCNC(=N)N)NC(=O)[C@H](Cc1ccccc1)NC(=O)[C@H](C)NC(=O)[C@@H]1CCCN1C(=O)[C@@H](N)CCCNC(=N)N)C(C)C)C(=O)N[C@@H](CCCNC(=N)N)C(=O)N[C@@H](C)C(=O)N[C@@H](CS)C(=O)N[C@H](C(N)=O)C(C)C (H-RPAFRKAAFRVMRACV-NH2) |  |  | > 1300 | MIC (Pseudomonas aeruginosa): 4 µM (≈ 7.51 µg/mL)
